The text below walks through data of patent US20070010527A1, “4-Anilino-3-quinolinecarbonitriles for the treatment of cancer” (priority 2005, published 2007).

Experiment [1] concerns HN5 head and neck tumor line. In words: Phosphorylation of downstream proteins in EGF-stimulated HN5 cells. Type of experiment: cell-based. The settings on record: serum-starved HN5 cells, compound 4 hours, then EGF 50 ng/ml ten minutes. The method, then:
FIG. 1. […] Serum-starved HN5 cells were treated with the compound for 4 hours, after which EGF was added to 50 ng/ml for ten minutes. Lysates were analyzed for Stat3 Y705, c-Cbl Y731 and Y774 and caveolin Y14 phosphorylation.

The subject of a further experiment is HS-294-T melanoma cells. In words: Proliferation assay, SRB. In kind it is cell-based. The settings on record: Homo sapiens, 96 h, day 4. The method, then: (§1) For the experiments described in Table 3, 1000 cells were plated in each well of a 96 well cell culture dish on day 0 in the standard growth medium for that particular cell line. Compound was added on day 1. Relative cell number was determined on day 4.
(§2) The sulforhodamine B (SRB) assay was used for certain melanoma lines. In this assay, the serum concentration in the growth medium was 5% and culture medium volume was 0.2 ml. On day 4, 0.05 ml of 50% trichloroacetic acid was added to the medium and the plate was allowed to sit at room temperature for 1 hour. The medium was decanted and the plate was washed 3 times with water. The washed plates were dried, and then 0.08 ml of SRB reagent (SRB was obtained from Sigma; 0.4% SRB in 1% acetic acid) was added. After 10 minutes at room temperature, the plates were washed with 1% acetic acid until no free red color remained in solution. The bound SRB reagent was solubilized with 0.15 ml 10 mM Tris (no acid added). After agitating for 5 minutes on a shaker, the absorbance was read at 540 nm.

Experiment [2] relates to A375 melanoma cells. The experiment can be described thus: Proliferation assay, SRB. The conditions noted are these: Homo sapiens, A-375, 96 h, day 4. In kind it is cell-based. Here is the method: as §1, §2
The next experiment concerns RPMI-7951 melanoma cells. In words: Proliferation assay, SRB. Type of experiment: cell-based. The conditions noted are these: Homo sapiens, RPMI-7951, 96 h, day 4. Here is the method:
as §1, §2

For experiment [3], the system named is MiaPaca pancreatic tumor cells. The experiment can be described thus: Proliferation assay, CellTiter-Glo. Type of experiment: cell-based. The conditions noted are these: Homo sapiens, MIA PaCa-2, 96 h, Cell-glo, day 4. The method, then: as §1
(§3) The CellTiter-Glo luminescent cell viability assay (Promega #G7573) was used where cells were lysed with the CellTiter Glo reagent, agitated briefly and allowed to sit at room temperature for 30 minutes prior to analyzing on a Wallac plate reader equipped for luminescence readings.

The test system of experiment [4] is BxPC3 pancreatic tumor cells. In words: Proliferation assay, CellTiter-Glo. The settings on record: Homo sapiens, BXPC-3, 96 h, Cell-glo, day 4. Type of experiment: cell-based. Here is the method: as §1, §3
Experiment [5] has as its system LnCap prostate tumor cells. The experiment can be described thus: Proliferation assay, CellTiter-Glo. Type of experiment: cell-based. The conditions noted are these: Homo sapiens, 96 h, Cell-glo, day 4. Here is the method: as §1, §3
In general terms: Cellular ATP, detected with luciferase, serves as a proxy for viable cell number.

The subject of experiment [6] is A375 melanoma cells. The experiment can be described thus: Proliferation assay, CellTiter-Glo. The conditions noted are these: Homo sapiens, A-375, 96 h, Cell-glo, day 4. Type of experiment: cell-based. Here is the method:
as §1, §3

Experiment [7] concerns Capan pancreatic tumor cells. In words: Proliferation assay, CellTiter-Glo. Type of experiment: cell-based. The conditions noted are these: 96 h, Cell-glo, day 4. The method, then: as §1, §3
Experiment [8] has as its system HN5 head and neck tumor cells. The experiment can be described thus: Proliferation assay, CellTiter-Glo. Type of experiment: cell-based. The settings on record: 96 h, Cell-glo, day 4. The method, then:
as §1, §3

The test system of experiment [9] is DU145 prostate tumor cells. The experiment can be described thus: Proliferation assay, CellTiter-Glo. Type of experiment: cell-based. The settings on record: Homo sapiens, DU-145, 96 h, Cell-glo, day 4. Here is the method:
as §1, §3

The next experiment has as its target T1, PKA (Bos taurus, UniProt P00517).
T1 construct: purchased Upstate 14-114
The experiment can be described thus: PKA Scintiplate kinase assay. In kind it is biochemical. From the text: PKA, PKC, S6 kinase, CAMKII and p38 kinase assays.

Experiment [10] has as its system A375 melanoma subcutaneous tumor xenografts. In words: A375 melanoma subcutaneous tumor xenograft in nude mice. The settings on record: 30 mg/kg bid ip 9 days, day 12. Type of experiment: in vivo. The method, then: All animal studies were conducted under an approved Institutional Animal Care and Use Committee protocol. Tumor cells were suspended to 50 million cells/ml and 0.2 ml of the cell suspension was injected subcutaneously into a flank of 6-7 weeks old female nude mice (Charles River, Wilmington, Mass.). Mice with tumors larger than 200 mm^3 after one week were administered vehicle or compound by intraperitoneal injection at the indicated doses in 0.2 ml of vehicle containing 0.5% methylcellulose and 0.4% polysorbate 80 (Tween 80).

The subject of experiment [11] is HSB-2 T-cell leukemia cells. The experiment can be described thus: Proliferation assay, MTS. In kind it is cell-based. The conditions noted are these: HSB2, 96 h, day 4. Here is the method: as §1
(§4) Some assays were monitored with the aid of the CellTiter 96 assay (Promega #G3580). With this assay, on day 4, detection reagent was added to the 96 well plate and absorbance at 490 nm was measured.

The test system of experiment [12] is Molt-4 T-cell leukemia cells. In words: Proliferation assay, MTS. The settings on record: Homo sapiens, MOLT-4, 96 h, day 4. In kind it is cell-based. Here is the method: as §1, §4
Another experiment concerns the target CAMKII. The experiment can be described thus: CAMKII kinase ELISA. Type of experiment: biochemical. Here is the method:
Assay Dilution Buffer (ADB): 20 mM MOPS, pH 7.2, 25 mM β-glycerol phosphate, 5 mM EGTA, 1 mM sodium orthovanadate, 1 mM dithiothreitol. 2. […] 3. […] 4. […] 5. […] 3. […] 4. […] 5. […] 6. […] 7.

With `COc1cc(Nc2c(C#N)cnc3cc(OCCCN4CCN(C)CC4)c(OC)cc23)c(Cl)cc1Cl` [4-(2,4-dichloro-5-methoxy-phenylamino)-6-methoxy-7-[3-(4-methyl-piperazin-1-yl)-propoxy]-quinoline-3-carbonitrile], the “phosphorylation of Y705 of Stat3” value in experiment [1] is recorded as “reduced”. Moreover, in experiment [1], the “phosphorylation of c-Cbl Y731” value was “reduced”. Moreover, the “phosphorylation of caveolin Y14” value in experiment [1] was “reduced”. In addition, the IC50 in the experiment on HS-294-T melanoma cells was 0.6 µM; in the experiment on A375 melanoma cells [2] it was 0.9 µM; in the experiment on RPMI-7951 melanoma cells, 1.2 µM; in [3], 1.3 µM; in [4], 3.9 µM; in experiment [5], 3.5 µM. Besides, the IC50 in the experiment with A375 melanoma cells [6] worked out at 1.2 µM; in experiment [7], 5.9 µM; in experiment [8], 0.3 µM; in experiment [9], 1.6 µM; against PKA it was 5.03 µM; in [11] it was 0.014 µM. Further, the IC50 in [12] was 8.2 µM; against CAMKII, 6.25 µM. The T/C in experiment [10] was 39%, day 12.

The IC50 is the point on the concentration scale where inhibition reaches its midpoint. Higher therefore signals lower potency.
